ChEMBL document CHEMBL5126611, “Design, Synthesis, and Biological Evaluations of Pyridyl 4,5,6,7-Tetrahydro-4,7-Methanobenzo[d]isoxazoles as Potent and Selective Inhibitors of 11β-Hydroxylase” (J Med Chem, 2022)

Tests used:
[1] = target: T1, Cytochrome P450 11B2, mitochondrial (Homo sapiens, UniProt P19099); assay: Inhibition of human CYP11B2 expressed in Chinese hamster V79 MZh cells using [14C]-deoxycorticosteron as substrate measured after 6 hrs by phosphoimager analysis; assay type: ADME, cell-based
T1 sequence (P19099 whole entry): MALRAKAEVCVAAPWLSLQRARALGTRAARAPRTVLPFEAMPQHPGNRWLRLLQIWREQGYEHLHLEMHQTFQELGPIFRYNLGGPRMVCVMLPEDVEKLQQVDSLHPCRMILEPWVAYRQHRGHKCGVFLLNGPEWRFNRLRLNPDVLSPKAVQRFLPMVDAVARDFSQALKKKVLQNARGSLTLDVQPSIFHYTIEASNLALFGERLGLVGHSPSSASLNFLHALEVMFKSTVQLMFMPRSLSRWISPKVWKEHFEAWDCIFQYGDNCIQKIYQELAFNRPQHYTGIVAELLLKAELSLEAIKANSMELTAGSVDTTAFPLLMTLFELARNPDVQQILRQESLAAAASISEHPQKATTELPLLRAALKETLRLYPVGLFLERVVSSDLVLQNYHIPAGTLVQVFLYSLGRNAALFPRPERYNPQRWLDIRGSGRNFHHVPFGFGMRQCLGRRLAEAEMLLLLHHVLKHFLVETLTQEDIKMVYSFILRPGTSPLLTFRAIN

[2] = Selectivity ratio of IC50 for inhibition of human CYP11B2 to IC50 for inhibition of human CYP11B1; assay type: ADME
[3] = target: T2, Cytochrome P450 11B1, mitochondrial (Homo sapiens, UniProt P15538); assay: Inhibition of human CYP11B1 expressed in Chinese hamster V79 MZh cells using [14C]-deoxycorticosteron as substrate measured after 6 hrs by phosphoimager analysis; assay type: ADME, cell-based
T2 sequence (P15538 whole entry): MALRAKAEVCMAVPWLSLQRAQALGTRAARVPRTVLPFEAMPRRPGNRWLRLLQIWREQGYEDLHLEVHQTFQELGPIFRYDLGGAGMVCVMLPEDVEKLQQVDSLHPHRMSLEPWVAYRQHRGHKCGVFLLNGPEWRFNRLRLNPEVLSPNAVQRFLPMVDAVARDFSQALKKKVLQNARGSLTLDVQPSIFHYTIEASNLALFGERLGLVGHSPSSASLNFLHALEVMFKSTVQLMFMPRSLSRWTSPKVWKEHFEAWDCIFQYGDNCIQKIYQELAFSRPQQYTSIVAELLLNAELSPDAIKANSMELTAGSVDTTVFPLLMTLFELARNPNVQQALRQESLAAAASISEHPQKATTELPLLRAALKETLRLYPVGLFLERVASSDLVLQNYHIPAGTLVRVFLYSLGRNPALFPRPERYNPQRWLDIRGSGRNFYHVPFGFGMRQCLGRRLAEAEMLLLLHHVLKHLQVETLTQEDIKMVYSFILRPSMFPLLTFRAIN

| Structure (SMILES) | IC50 [1] | IC50 [3] | Ratio IC50 [2] |
| --- | --- | --- | --- |
| O=C(Nc1ccc(Cl)cc1)[C@]12ON=C(c3cccnc3)[C@H]1[C@@H]1CC[C@H]2C1 | 6720 nM | 83 nM | 81 |
| O=C(Nc1cccc(F)n1)[C@]12ON=C(c3cccnc3)[C@H]1[C@@H]1CC[C@H]2C1 | 4010 nM | 86 nM | 47 |
| COc1cccc(NC(=O)[C@]23ON=C(c4cccnc4)[C@H]2[C@@H]2CC[C@H]3C2)c1 | 2390 nM | 32 nM | 75 |
| Nc1ccccc1NC(=O)[C@]12ON=C(c3cccnc3)[C@H]1[C@@H]1CC[C@H]2C1 | 4310 nM | 138 nM | 31 |
| O=C(Nc1ccccc1F)[C@]12ON=C(c3cccnc3)[C@H]1[C@@H]1CC[C@H]2C1 | 5750 nM | 135 nM | 43 |
| Cc1ccccc1NC(=O)[C@]12ON=C(c3cccnc3)[C@H]1[C@@H]1CC[C@H]2C1 | 9770 nM | 189 nM | 52 |
| Cc1ccc(NC(=O)[C@]23ON=C(c4cccnc4)[C@H]2[C@@H]2CC[C@H]3C2)cc1 | 6220 nM | 128 nM | 49 |
| O=C(Nc1ccccc1)[C@]12ON=C(c3cccnc3)[C@H]1[C@@H]1CC[C@H]2C1 | 5940 nM | 167 nM | 36 |
| O=C(Nc1ncccn1)[C@]12ON=C(c3cccnc3)[C@H]1[C@@H]1CC[C@H]2C1 | 7710 nM | 179 nM | 43 |
| O=C(Nc1cccc(Cl)c1Cl)[C@]12ON=C(c3cccnc3)[C@H]1[C@@H]1CC[C@H]2C1 | 5120 nM | 157 nM | 33 |
| O=C(Nc1nc2ccccc2[nH]1)[C@]12ON=C(c3cccnc3)[C@H]1[C@@H]1CC[C@H]2C1 | 2940 nM | 106 nM | 28 |
| COc1ccc(NC(=O)[C@]23ON=C(c4cccnc4)[C@H]2[C@@H]2CC[C@H]3C2)cc1 | 4020 nM | 79 nM | 51 |
| COc1ccccc1NC(=O)[C@]12ON=C(c3cccnc3)[C@H]1[C@@H]1CC[C@H]2C1 | 5950 nM | 113 nM | 53 |
| Cc1ccncc1NC(=O)[C@]12ON=C(c3cccnc3)[C@H]1[C@@H]1CC[C@H]2C1 | 4450 nM | 115 nM | 39 |
| CN(C(=O)[C@]12ON=C(c3cccnc3)[C@H]1[C@@H]1CC[C@H]2C1)c1ccccc1 | 4250 nM | 183 nM | 23 |

Second part, led by results:

| IC50 [1] | IC50 [3] | Structure (SMILES) | Ratio IC50 [2] |
| --- | --- | --- | --- |
| 329 nM | 12 nM | N#Cc1cccc(-c2cncc(C3=NO[C@]4(C(=O)Nc5ccc6[nH]ncc6c5)[C@H]5CC[C@H](C5)[C@H]34)c2)c1 | 27 |
| 2600 nM | 65 nM | O=C(Nc1cccc([N+](=O)[O-])c1)[C@]12ON=C(c3cccnc3)C1[C@@H]1CCC2C1 (single isomer, unassigned) | 41 |
| 796 nM | 46 nM | O=C(Nc1ccc2[nH]ncc2c1)[C@]12ON=C(c3cncc(-c4ccoc4)c3)[C@H]1[C@@H]1CC[C@H]2C1 | 17 |
| 2840 nM | 49 nM | O=C(Nc1cccc(F)c1)[C@]12ON=C(c3cccnc3)[C@H]1[C@@H]1CC[C@H]2C1 | 58 |
| 918 nM | 31 nM | O=C(Nc1ccc2[nH]ncc2c1)[C@]12ON=C(c3cncc(Br)c3)[C@H]1[C@@H]1CC[C@H]2C1 | 30 |
| 2070 nM | 25 nM | O=C(Nc1ccc2cc[nH]c2c1)[C@]12ON=C(c3cccnc3)[C@H]1[C@@H]1CC[C@H]2C1 | 82 |
| 6670 nM | 97 nM | O=C(Nc1cccc(Cl)c1)[C@]12ON=C(c3cccnc3)[C@H]1[C@@H]1CC[C@H]2C1 | 69 |
| 1650 nM | 17 nM | O=C(Nc1cnc2[nH]ccc2c1)[C@]12ON=C(c3cccnc3)[C@H]1[C@@H]1CC[C@H]2C1 | 97 |
| 113 nM | 6 nM | O=C(Nc1ccc2[nH]ncc2c1)[C@]12ON=C(c3cncc(-c4ccc(F)cc4)c3)[C@H]1[C@@H]1CC[C@H]2C1 | 19 |
| 412 nM | 8 nM | O=C(Nc1ccc2[nH]ncc2c1)[C@]12ON=C(c3cncc(-c4cccc(F)c4)c3)[C@H]1[C@@H]1CC[C@H]2C1 | 52 |
| 2990 nM | 57 nM | O=C(Nc1ccc(F)cc1)[C@]12ON=C(c3cccnc3)[C@H]1[C@@H]1CC[C@H]2C1 | 53 |
| 3800 nM | 46 nM | N#Cc1ccc(NC(=O)[C@]23ON=C(c4cccnc4)[C@H]2[C@@H]2CC[C@H]3C2)cc1 | 83 |
| 2280 nM | 22 nM | O=C(Nc1ccc2[nH]ccc2c1)[C@]12ON=C(c3cccnc3)[C@H]1[C@@H]1CC[C@H]2C1 | 103 |
| 5590 nM | 96 nM | O=C(Nc1ccc([N+](=O)[O-])cc1)[C@]12ON=C(c3cccnc3)[C@H]1[C@@H]1CC[C@H]2C1 | 58 |
| 477 nM | 15 nM | COc1cccc(-c2cncc(C3=NO[C@]4(C(=O)Nc5ccc6[nH]ncc6c5)[C@H]5CC[C@H](C5)[C@H]34)c2)c1 | 32 |
| 398 nM | 17 nM | O=C(Nc1ccc2[nH]ncc2c1)[C@]12ON=C(c3cncc(-c4cccc(C(F)(F)F)c4)c3)[C@H]1[C@@H]1CC[C@H]2C1 | 23 |
| 1430 nM | 37 nM | O=C(Nc1ccc2[nH]ncc2c1)[C@]12ON=C(c3cncc(-c4ccsc4)c3)[C@H]1[C@@H]1CC[C@H]2C1 | 39 |
| 9640 nM | 153 nM | Cc1cccc(NC(=O)[C@]23ON=C(c4cccnc4)[C@H]2[C@@H]2CC[C@H]3C2)c1 | 63 |
| 57 nM | 2 nM | N#Cc1ccc(-c2cncc(C3=NO[C@]4(C(=O)Nc5ccc6[nH]ncc6c5)[C@H]5CC[C@H](C5)[C@H]34)c2)cc1 | 28 |
| 2180 nM | 35 nM | N#Cc1cccc(NC(=O)[C@]23ON=C(c4cccnc4)[C@H]2[C@@H]2CC[C@H]3C2)c1 | 62 |
